Data: PubChem BioAssay (NCI)
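96-well plates; 48 h exposure; 5 concentrations. Endpoints by linear interpolation between flanking doses. Not reached: highest tested concentration assigned. TGI marks complete inhibition of growth.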 Where a SMILES comes first, the peptide text is derived from it. The star is where a group is joined. Boc = CC(C)(C)OC(=O)*; OSu = O=C1CCC(=O)N1O*

What was measured:
Assay in all cases: NCI-60 cell line screen, 48 h
UACC-257 melanoma = test system: UACC-257 melanoma
MOLT-4 leukemia = test system: MOLT-4 leukemia
NCI-H522 lung = test system: NCI-H522 lung
EKVX NSCLC = test system: EKVX NSCLC
COLO 205 colon = test system: COLO 205 colon
UO-31 renal = test system: UO-31 renal
SF-295 CNS = test system: SF-295 CNS
CCRF-CEM leukemia = test system: CCRF-CEM leukemia
BT-549 breast = test system: BT-549 breast
MDA-N = test system: MDA-N
MDA-MB-435 = test system: MDA-MB-435

SMILES | TGI (UACC-257 melanoma) [µM] | TGI (MOLT-4 leukemia) [µM] | TGI (NCI-H522 lung) [µM] | TGI (EKVX NSCLC) [µM] | TGI (COLO 205 colon) [µM] | TGI (UO-31 renal) [µM] | TGI (SF-295 CNS) [µM] | TGI (CCRF-CEM leukemia) [µM] | TGI (BT-549 breast) [µM] | TGI (MDA-N) [µM] | TGI (MDA-MB-435) [µM]
CN(C)c1ccc(C(=C(c2ccc(N(C)C)cc2)c2ccc(N(C)C)cc2)c2ccc(N(C)C)cc2)cc1 | 34.8 | 41 | 1.12 | 34.4 | > 100 | 39.9 | 27.8 | 50.4 | – | – | –
NC(CCCC(N)P(=O)(O)c1ccccc1)P(=O)(O)c1ccccc1 (stereo not drawn) | > 261 | > 261 | > 261 | > 261 | > 261 | > 261 | > 261 | > 261 | – | – | –
CC(NC(=O)C(NC(=O)OC(C)(C)C)C(C)C)C(=O)NCC(=O)ON1C(=O)CCC1=O (stereo not drawn) (Boc-Val-Ala-Gly-OSu; configuration not given here) | > 100 | > 100 | > 100 | > 100 | > 100 | > 100 | > 100 | – | > 100 | > 100 | > 100
Cc1cccc2c(=O)c([Se]c3coc4c(C)cccc4c3=O)coc12 | 38.5 | > 100 | > 100 | 33.3 | – | 28.7 | 17.8 | > 100 | – | – | –
COC(=O)C(Cc1c[nH]c2ccccc12)NC(=O)C(Cc1c[nH]c2ccccc12)NC(=O)C(Cc1c[nH]c2ccccc12)NC(=O)C(Cc1c[nH]c2ccccc12)NC(=O)C(Cc1c[nH]c2ccccc12)NC(=O)C(Cc1c[nH]c2ccccc12)NC(=O)OC(C)(C)C (stereo not drawn) (Boc-WWWWWW-OMe; configuration not given here) | > 100 | > 100 | > 100 | – | – | > 100 | – | > 100 | > 100 | > 100 | > 100
Cn1c(=O)c(C(=O)Nc2nc(C34CC5CC(CC(C5)C3)C4)cs2)c(O)c2ccccc21 | > 100 | – | > 100 | > 100 | > 100 | > 100 | > 100 | > 100 | > 100 | > 100 | > 100
O=S(=O)(c1ccccc1)n1c2ccc(Br)cc2c2nc3ccccc3nc21 | > 100 | > 100 | > 100 | – | > 100 | > 100 | > 100 | > 100 | – | > 100 | > 100
Cc1ccsc1/C=N/Nc1nc2ccccc2s1 | 51.4 | 31.3 | – | 41.9 | > 100 | > 100 | 23.8 | 28.8 | > 100 | > 100 | > 100
O=C(c1ccc(Cl)cc1)c1ccc(OCCCOc2ccc(C(=O)c3ccc(Cl)cc3)cc2)cc1 | > 100 | > 100 | > 100 | > 100 | > 100 | – | > 100 | > 100 | – | – | –
O=C1c2ccc(O)cc2C(=O)c2ccc(O)cc21 | > 100 | > 100 | > 100 | > 100 | > 100 | 73.2 | > 100 | > 100 | – | – | –
COc1cc(C2c3cc4c(cc3[C@@H](Nc3ccccc3)C3COC[C@H]23)OCO4)cc(OC)c1O (stereo partly drawn) | 50.4 | – | 25.8 | > 100 | 70.7 | 3.71 | 3.36 | 2.15 | – | > 100 | –
CC(C)/C(Cl)=N\OC(=O)Nc1ccccc1F | 33.2 | 12.4 | – | 30.7 | 4.2 | 29.6 | 30.3 | 3.44 | 27.6 | 30.6 | –
CC1(C)N=C(C(N)=O)c2ncn(N)c2N1 | > 100 | – | > 100 | > 100 | > 100 | – | > 100 | > 100 | – | > 100 | > 100
CC(=O)N=C1N(/C=C2\C(=O)Oc3ccccc3C2=O)C(=O)/C(=C/c2ccc(OC(C)=O)cc2)N1C | > 100 | > 100 | > 100 | > 100 | > 100 | – | > 100 | > 100 | – | > 100 | > 100
CCCCC(=O)NS(=NC(=O)c1ccccc1)C(Cl)(Cl)Cl (stereo not drawn) | > 100 | > 100 | – | > 100 | > 100 | > 100 | > 100 | > 100 | > 100 | > 100 | > 100
C[n+]1c(-c2ccc(/C=N/NC(=N)N/N=C/c3ccc(-c4cn5cc(Cl)ccc5[n+]4C)cc3)cc2)cn2cc(Cl)ccc21 | > 100 | > 100 | > 100 | > 100 | > 100 | > 100 | > 100 | > 100 | – | – | > 100
Cc1nc(C)c(C(=O)NNC(N)=S)cc1C(=O)NNC(N)=S | > 100 | > 100 | > 100 | > 100 | > 100 | > 100 | > 100 | – | > 100 | > 100 | > 100
BrCCCCCOc1ccc(-c2c3ccccc3c(-c3ccc(OCCCCCBr)cc3)c3ccccc23)cc1 | > 100 | > 100 | – | > 100 | > 100 | > 100 | > 100 | > 100 | – | > 100 | > 100
O=C(c1ccco1)N1CCCN(C(=O)c2ccco2)C1=S | > 100 | > 100 | – | > 100 | > 100 | > 100 | – | > 100 | > 100 | > 100 | > 100
N/C(=N\S(=O)(=O)c1ccc(S(=O)(=O)c2ccccc2)s1)Nc1ccc(Cl)cc1 | 29.1 | 59.6 | 28.9 | 40.4 | 39.4 | 40 | 47 | – | 46 | 39.1 | –
COC(=O)[C@]1(c2cc3ccccc3n2S(=O)(=O)c2ccccc2)CC2CN(C(C)=O)C1CC2=O (stereo partly drawn) | 7.8 | 4.85 | 4.62 | 6.17 | 7.29 | 3.45 | 30.1 | – | 7.24 | 9.32 | 6.32
C[C@]12CCC(=O)C=C1CC[C@@H]1[C@@H]2[C@@H](O)C[C@@]2(C)[C@H]1CC[C@]2(O)C(=O)COC(=O)COCC(=O)O | > 100 | > 100 | > 100 | > 100 | > 100 | > 100 | > 100 | > 100 | – | – | –
